Experimental data taken from patent US10941157B2, “Pesticidal compositions and uses thereof” (Gilead Apollo, LLC, priority 2015, dated 2021).
Converted amounts (≈) assume the structure as drawn. Like-named read-outs stand apart in the source and are kept apart here.

How the values were obtained:
Format in all cases: cell-based
[1] = test system: Collectotrichum graminicola (Cg); test: In vitro pathogen growth inhibition assay, Cg; conditions: 48 h
Outline: (§1)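 Spores in 17% V8 liquid medium, or 1.5 mm Rs mycelial plugs in ¼ PDB, incubated with compound; final concentration checked by OD600 for precipitation. OD readings at 24 and 48 h, blank-subtracted, plus visual ratings; value is concentration giving ≥90% growth inhibition.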

Septoria tritici (St) = test: In vitro pathogen growth inhibition assay, St; conditions: Zymoseptoria tritici, 48 h
Outline: as §1

[2] = test system: Fusarium moniliforme (Fm); test: In vitro pathogen growth inhibition assay, Fm; conditions: Fusarium verticillioides
Outline: as §1

Rhizoctonia solani (Rs) = test: In vitro pathogen growth inhibition assay, Rs (mycelial plugs); conditions: Rhizoctonia solani, 48 h
Outline: (§2)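 Value reported is the compound concentration reaching ≥90% growth inhibition, from OD readings at 24 and 48 h after blank subtraction, confirmed visually. Inoculum was spores diluted in 17% V8 medium, except Rs, using 1.5 mm mycelial plugs in ¼ PDB; actual compound concentration corrected via OD600.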

[3] = test system: Fusarium virguliforme (Fv); test: In vitro pathogen growth inhibition assay, Fv
Outline: as §2

Botrtyis cinerea (Bc) = test: In vitro pathogen growth inhibition assay, Bc; conditions: 48 h
Outline: as §1

[4] = test system: Phytophthora capsici (Pc); test: In vitro pathogen growth inhibition assay, Pc; conditions: 48 h
Outline: as §2

Diplodia maydis (Dm) = test: In vitro pathogen growth inhibition assay, Dm; conditions: Stenocarpella maydis, 48 h
Outline: as §2

[5] = concentration sufficient to ≥90% inhibition of growth, 48 hours vs 2% DMSO control, read-out: Compound Concentration (ppm) for ≥90% inhibition, Cg
[6] = concentration sufficient to ≥90% inhibition of growth, 48 hours vs 2% DMSO control, read-out: Compound Concentration (ppm) for ≥90% inhibition, St
[7] = concentration sufficient to ≥90% inhibition of growth, 48 hours vs 2% DMSO control, read-out: Compound Concentration (ppm) for ≥90% inhibition, Fm
[8] = concentration sufficient to ≥90% inhibition of growth, 48 hours vs 2% DMSO control, read-out: Compound Concentration (ppm) for ≥90% inhibition, Rs
[9] = concentration sufficient to ≥90% inhibition of growth, 48 hours vs 2% DMSO control, read-out: Compound Concentration (ppm) for ≥90% inhibition, Fv
[10] = concentration sufficient to ≥90% inhibition of growth, 48 hours vs 2% DMSO control, read-out: Compound Concentration (ppm) for ≥90% inhibition, Bc
[11] = concentration sufficient to ≥90% inhibition of growth, 48 hours vs 2% DMSO control, read-out: Compound Concentration (ppm) for ≥90% inhibition, Pc
[12] = concentration sufficient to ≥90% inhibition of growth, 48 hours vs 2% DMSO control, read-out: Compound Concentration (ppm) for ≥90% inhibition, Dm
[13] = ≥90% growth inhibition, 48 hours, vs 2% DMSO control, read-out: Compound Concentration (ppm) sufficient for ≥90% inhibition of Cg
[14] = ≥90% growth inhibition, 48 hours, vs 2% DMSO control, read-out: Compound Concentration (ppm) sufficient for ≥90% inhibition of St
[15] = ≥90% growth inhibition, 48 hours, vs 2% DMSO control, read-out: Compound Concentration (ppm) sufficient for ≥90% inhibition of Fm
[16] = ≥90% growth inhibition, mycelial plugs, 48 hours, vs 2% DMSO control, read-out: Compound Concentration (ppm) sufficient for ≥90% inhibition of Rs
[17] = ≥90% growth inhibition, 48 hours, vs 2% DMSO control, read-out: Compound Concentration (ppm) sufficient for ≥90% inhibition of Fv
[18] = ≥90% growth inhibition, 48 hours, vs 2% DMSO control, read-out: Compound Concentration (ppm) sufficient for ≥90% inhibition of Bc
[19] = ≥90% growth inhibition, 48 hours, vs 2% DMSO control, read-out: Compound Concentration (ppm) sufficient for ≥90% inhibition of Pc
[20] = ≥90% growth inhibition, 48 hours, vs 2% DMSO control, read-out: Compound Concentration (ppm) sufficient for ≥90% inhibition of Dm

IC90 [1, 5] [µg/mL]	IC90 (Septoria tritici (St); [6]) [µg/mL]	IC90 [2, 7] [µg/mL]	IC90 (Rhizoctonia solani (Rs); [8]) [µg/mL]	IC90 [3, 9] [µg/mL]	IC90 (Botrtyis cinerea (Bc); [10]) [µg/mL]	IC90 [4, 11] [µg/mL]	IC90 (Diplodia maydis (Dm); [12]) [µg/mL]	IC90 [1, 13] [µg/mL]	IC90 (Septoria tritici (St); [14]) [µg/mL]	IC90 [2, 15] [µg/mL]	IC90 (Rhizoctonia solani (Rs); [16]) [µg/mL]	IC90 [3, 17] [µg/mL]	IC90 (Botrtyis cinerea (Bc); [18]) [µg/mL]	IC90 [4, 19] [µg/mL]	IC90 (Diplodia maydis (Dm); [20]) [µg/mL]	SMILES
> 50	> 50	10 (≈ 17.9 µM)	10 (≈ 17.9 µM)	10 (≈ 17.9 µM)	50 (≈ 89.7 µM)	> 50	> 50									Cc1c(-n2cccn2)sc2c1c(=O)n(C(C)(C)C(=O)NC(C)C)c(=O)n2CCc1cc(F)ccc1OCCO [Compound I-337]
								50 (≈ 88.1 µM)	> 50	2 (≈ 3.52 µM)	50 (≈ 88.1 µM)	2 (≈ 3.52 µM)	10 (≈ 17.6 µM)	> 50	50 (≈ 88.1 µM)	Cc1c(-n2nccn2)sc2c1c(=O)n(C(C)(C)C(=O)NC(C)C)c(=O)n2CCc1cc(F)ccc1OCCC#N [Compound I-340]

Further lines, the compound ahead of its results:

SMILES	IC90 [1, 5] [µg/mL]	IC90 (Septoria tritici (St); [6]) [µg/mL]	IC90 [2, 7] [µg/mL]	IC90 (Rhizoctonia solani (Rs); [8]) [µg/mL]	IC90 [3, 9] [µg/mL]	IC90 (Botrtyis cinerea (Bc); [10]) [µg/mL]	IC90 [4, 11] [µg/mL]	IC90 (Diplodia maydis (Dm); [12]) [µg/mL]	IC90 [1, 13] [µg/mL]	IC90 (Septoria tritici (St); [14]) [µg/mL]	IC90 [2, 15] [µg/mL]	IC90 (Rhizoctonia solani (Rs); [16]) [µg/mL]	IC90 [3, 17] [µg/mL]	IC90 (Botrtyis cinerea (Bc); [18]) [µg/mL]	IC90 [4, 19] [µg/mL]	IC90 (Diplodia maydis (Dm); [20]) [µg/mL]
Cc1c(-n2nccn2)sc2c1c(=O)n(C(C)(C)C(=O)NC(C)C)c(=O)n2CCc1cc(F)ccc1OC(C)C [Compound I-338]									10 (≈ 18 µM)	> 50	0.08 (≈ 0.144 µM)	10 (≈ 18 µM)	0.08 (≈ 0.144 µM)	2 (≈ 3.59 µM)	> 50	2 (≈ 3.59 µM)
CCOC(=O)c1sc2c(c1C)c(=O)n(C(C)(C)C(=O)NC(C)C)c(=O)n2CCc1cc(F)ccc1OCCC#N [Compound I-339]									> 50	> 50	2 (≈ 3.49 µM)	50 (≈ 87.3 µM)	2 (≈ 3.49 µM)	10 (≈ 17.5 µM)	> 50	> 50
COc1ccc(F)cc1[C@@H](CCCC#N)Cn1c(=O)n(C(C)(C)C(=O)NC(C)C)c(=O)c2c(C)c(-n3ccnn3)sc21 [Compound I-341]	> 50	> 50	> 50	> 50	> 50	> 50	> 50	> 50								
